Assay results from ChEMBL document CHEMBL1201862, “PubChem BioAssay data set” (2004).
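48-hour exposure; five concentrations; linearly interpolated endpoints. GI50: concentration for 50% inhibition of growth.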 Activity calls are given as the source filed them. No stated cut-off is given here; in the data, active = GI50 up to about 1.1 µM and inactive = higher. Peptide text beside a SMILES is read from it. * marks the point of attachment. Boc = CC(C)(C)OC(=O)*; OtBu = CC(C)(C)O*

Experiments:
Experiment in all cases: DTP human tumour cell line panel, 48 h
786-0 = test system: 786-0
HL-60 = test system: HL-60
OVCAR-4 = test system: OVCAR-4
NCI-H460 = test system: NCI-H460
SF-268 = test system: SF-268
OVCAR-8 = test system: OVCAR-8
SNB-19 = test system: SNB-19
SK-MEL-2 = test system: SK-MEL-2
RPMI-8226 = test system: RPMI-8226
SN12C = test system: SN12C
MDA-N = test system: MDA-N
NCI/ADR-RES = test system: NCI/ADR-RES
K562 = test system: K562
HT-29 = test system: HT-29
SNB-75 = test system: SNB-75
A549 = test system: A549
Malme-3M = test system: Malme-3M
COLO 205 = test system: COLO 205
U-251 = test system: U-251
PC-3 = test system: PC-3
HCC 2998 = test system: HCC 2998
Hs-578T = test system: Hs-578T
NCI-H522 = test system: NCI-H522
NCI-H23 = test system: NCI-H23
SK-MEL-28 = test system: SK-MEL-28
SW-620 = test system: SW-620
OVCAR-5 = test system: OVCAR-5
UO-31 = test system: UO-31
RXF 393 = test system: RXF 393
EKVX = test system: EKVX
HCT-15 = test system: HCT-15
BT-549 = test system: BT-549
UACC-257 = test system: UACC-257
IGROV-1 = test system: IGROV-1
SK-MEL-5 = test system: SK-MEL-5
HOP-92 = test system: HOP-92
ACHN = test system: ACHN
MDA-MB-231 = test system: MDA-MB-231
DU-145 = test system: DU-145
MCF7 = test system: MCF7
KM12 = test system: KM12
T47D = test system: T47D
SK-OV-3 = test system: SK-OV-3
A498 = test system: A498
MOLT-4 = test system: MOLT-4
TK-10 = test system: TK-10
UACC-62 = test system: UACC-62
NCI-H226 = test system: NCI-H226
HOP-62 = test system: HOP-62
HCT-116 = test system: HCT-116
LOX IMVI = test system: LOX IMVI
MDA-MB-435 = test system: MDA-MB-435
SF-295 = test system: SF-295
CAKI-1 = test system: CAKI-1
M14 = test system: M14
SF-539 = test system: SF-539
CCRF-CEM = test system: CCRF-CEM
OVCAR-3 = test system: OVCAR-3

Measured: GI50

Nn1c(CCCCCCCCc2nnc(COc3ccccc3)n2N)nnc1COc1ccccc1
inactive: 786-0 > 100 µM | HL-60 > 100 µM | OVCAR-4 > 100 µM | NCI-H460 > 100 µM | SF-268 > 100 µM | OVCAR-8 > 100 µM | SNB-19 > 100 µM | SK-MEL-2 > 100 µM | RPMI-8226 > 100 µM | SN12C > 100 µM | MDA-N > 100 µM | NCI/ADR-RES > 100 µM | K562 > 100 µM | HT-29 > 100 µM | SNB-75 88.1 µM | A549 > 100 µM | Malme-3M > 100 µM | COLO 205 > 100 µM | U-251 > 100 µM | PC-3 > 100 µM | HCC 2998 > 100 µM | Hs-578T > 100 µM | NCI-H522 > 100 µM | NCI-H23 > 100 µM | SK-MEL-28 > 100 µM | SW-620 > 100 µM | OVCAR-5 > 100 µM | UO-31 > 100 µM | RXF 393 > 100 µM | EKVX > 100 µM | BT-549 > 100 µM | UACC-257 > 100 µM | IGROV-1 > 100 µM | SK-MEL-5 > 100 µM | HOP-92 > 100 µM | ACHN > 100 µM | MDA-MB-231 > 100 µM | DU-145 > 100 µM | MCF7 > 100 µM | KM12 > 100 µM | T47D > 100 µM | SK-OV-3 > 100 µM | A498 > 100 µM | MOLT-4 > 100 µM | TK-10 > 100 µM | UACC-62 > 100 µM | NCI-H226 > 100 µM | HOP-62 > 100 µM | HCT-116 > 100 µM | LOX IMVI > 100 µM | MDA-MB-435 > 100 µM | SF-295 > 100 µM | CAKI-1 > 100 µM | M14 > 100 µM
> 100 µM: HCT-15

CC1(C)CN(c2ccccc2)C(=O)C1OC(=O)[C@@]1(C)C[C@@H]2C=C[C@H]1C2 (stereo not given in full)
inactive: 786-0 21.8 µM | HL-60 20.3 µM | OVCAR-4 18.1 µM | NCI-H460 23 µM | SF-268 27.5 µM | OVCAR-8 32.2 µM | SNB-19 28.8 µM | SK-MEL-2 17.8 µM | RPMI-8226 12.3 µM | SN12C 21.3 µM | MDA-N 18.7 µM | SF-539 23.4 µM | NCI/ADR-RES 23 µM | K562 6.15 µM | HT-29 12.5 µM | SNB-75 34.3 µM | A549 29.6 µM | Malme-3M 10.9 µM | COLO 205 19.1 µM | U-251 19.2 µM | PC-3 30 µM | Hs-578T 31 µM | NCI-H23 25.2 µM | SK-MEL-28 18.1 µM | SW-620 33.3 µM | OVCAR-5 28.1 µM | UO-31 13.7 µM | RXF 393 17.9 µM | EKVX 28.4 µM | BT-549 33.9 µM | UACC-257 24.5 µM | IGROV-1 16.9 µM | SK-MEL-5 14.9 µM | HOP-92 27.9 µM | ACHN 34.5 µM | MDA-MB-231 24.5 µM | DU-145 87.5 µM | MCF7 24.4 µM | KM12 21.7 µM | T47D 32.7 µM | SK-OV-3 35.1 µM | A498 23.8 µM | MOLT-4 38.2 µM | TK-10 30.7 µM | UACC-62 18 µM | NCI-H226 23.3 µM | HOP-62 22.4 µM | HCT-116 19.5 µM | CCRF-CEM 23.3 µM | OVCAR-3 39.4 µM | LOX IMVI 18.9 µM | MDA-MB-435 20.2 µM | SF-295 24.5 µM | CAKI-1 26.5 µM | M14 22 µM
22.1 µM: HCT-15

CC(C)(C)OC(=O)CC(NC(=O)OC(C)(C)C)C(=O)NC(Cc1ccccc1)C(N)=O (stereo not given) (Boc-Asp(OtBu)-Phe-NH2; configuration not given here)
inactive: 786-0 > 100 µM | OVCAR-4 > 100 µM | NCI-H460 > 100 µM | SF-268 > 100 µM | OVCAR-8 > 100 µM | SNB-19 > 100 µM | SK-MEL-2 > 100 µM | RPMI-8226 > 100 µM | SN12C > 100 µM | MDA-N > 100 µM | SF-539 > 100 µM | NCI/ADR-RES > 100 µM | K562 > 100 µM | HT-29 > 100 µM | SNB-75 > 100 µM | A549 > 100 µM | Malme-3M > 100 µM | COLO 205 > 100 µM | U-251 > 100 µM | PC-3 > 100 µM | Hs-578T > 100 µM | NCI-H522 > 100 µM | NCI-H23 > 100 µM | SK-MEL-28 > 100 µM | SW-620 > 100 µM | OVCAR-5 > 100 µM | UO-31 > 100 µM | RXF 393 > 100 µM | EKVX > 100 µM | BT-549 > 100 µM | UACC-257 > 100 µM | IGROV-1 > 100 µM | SK-MEL-5 > 100 µM | HOP-92 19.8 µM | ACHN > 100 µM | MDA-MB-231 > 100 µM | DU-145 > 100 µM | MCF7 > 100 µM | KM12 > 100 µM | T47D > 100 µM | SK-OV-3 > 100 µM | A498 > 100 µM | TK-10 > 100 µM | NCI-H226 > 100 µM | HOP-62 > 100 µM | HCT-116 > 100 µM | CCRF-CEM > 100 µM | OVCAR-3 > 100 µM | LOX IMVI > 100 µM | MDA-MB-435 > 100 µM | SF-295 > 100 µM | CAKI-1 > 100 µM | M14 > 100 µM
> 100 µM: HCT-15
